# Reference: PubChem BioAssay (NCI)
#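 The compound was tested at five concentrations on cells cultured in 96-well plates, with a 48-hour exposure period. GI50 = concentration required for 50% inhibition of growth. Definition used: TGI = concentration required for complete inhibition of growth.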
# Experiments:
# Test in all cases: NCI anticancer screen, dose series, 48 h
# HCT-15 colon = system: HCT-15 colon
# UACC-62 melanoma = system: UACC-62 melanoma
# MCF7 breast = system: MCF7 breast
# SK-MEL-5 melanoma = system: SK-MEL-5 melanoma
# SF-295 CNS = system: SF-295 CNS
# OVCAR-8 ovarian = system: OVCAR-8 ovarian
# ACHN renal = system: ACHN renal
# DU-145 prostate = system: DU-145 prostate
# UACC-257 melanoma = system: UACC-257 melanoma
# UO-31 renal = system: UO-31 renal
Compound,TGI (HCT-15 colon) [µM],TGI (UACC-62 melanoma) [µM],TGI (MCF7 breast) [µM],TGI (SK-MEL-5 melanoma) [µM],TGI (SF-295 CNS) [µM],TGI (OVCAR-8 ovarian) [µM],TGI (ACHN renal) [µM],TGI (DU-145 prostate) [µM],TGI (UACC-257 melanoma) [µM],TGI (UO-31 renal) [µM],GI50 (HCT-15 colon) [µM],GI50 (UACC-62 melanoma) [µM],GI50 (MCF7 breast) [µM],GI50 (SK-MEL-5 melanoma) [µM],GI50 (SF-295 CNS) [µM],GI50 (OVCAR-8 ovarian) [µM],GI50 (ACHN renal) [µM],GI50 (UO-31 renal) [µM],GI50 (DU-145 prostate) [µM],GI50 (UACC-257 melanoma) [µM]
COc1ccc2c(c1)N(CCC1CCCCN1C)c1ccccc1S2 (stereo not drawn),27.4,25.2,24.5,24.8,31.2,30.9,28.1,26.2,17.3,,,,,,,,,,,
Cc1cc2c(=O)cc(-c3ccc(C(=O)O)cc3)oc2c(C(=O)O)c1C,> 100,> 100,,> 100,> 100,> 100,> 100,,> 100,> 100,,,,,,,,,,
CCOC(=O)c1c2c(n3cccc(F)c13)C(=O)c1ncccc1C2=O,12.2,1.28,1.27,3.22,3.69,7.47,2.43,2.84,6.37,1.42,0.0247,0.222,0.0572,0.0994,0.5,1.17,0.0791,0.0189,0.0761,0.849
CC1=C(C(=O)Nc2ccc(Cl)c(Cl)c2)C(c2cccc(O)c2)NC(=S)N1 (stereo not drawn),> 50,14.7,,15.4,17.6,28.1,19.7,14.5,> 50,19.1,21.8,7.09,,8.12,8.63,15.9,9.23,9.48,7.28,12.5
CSc1ccc2c(c1)C(=O)c1c-2n(CCCN=[N+]=[N-])c(=O)c2cc([N+](=O)[O-])ccc12,> 100,> 88.7,> 100,16.4,> 52.1,> 100,> 100,> 100,> 100,> 100,> 87.1,0.683,4.09,2.56,0.553,7.97,0.528,1.62,1.73,39.9
COc1ccc2c(c1)CC[C@@H]1[C@@H]2CC[C@]2(C)c3c(cc(C(=O)c4ccccc4)c4sccc34)C[C@@H]12,> 100,> 100,> 100,> 100,> 100,> 100,> 100,> 100,> 100,> 100,> 100,> 100,> 100,> 100,> 100,> 100,> 100,> 100,> 100,> 100
Cc1ccc(C2CC(c3cccc(Nc4ccncc4)c3)=NN2c2ccc(Cl)cc2)cc1 (stereo not drawn),3.43,3.14,3.86,3.16,3.19,,2.99,3.21,,2.63,1.83,1.72,1.8,1.76,1.79,,1.63,1.35,1.8,
COC(=O)c1cc(O)ccc1NC(=O)c1ccc(O)cc1,> 100,> 100,,> 100,> 100,> 100,> 100,,> 100,> 100,,,,,,,,,,
O=C(Cc1nc2ccccc2s1)NC12CC3CC(CC(C3)C1)C2,> 100,> 100,,,> 100,> 100,> 100,,> 100,> 100,,,,,,,,,,
Cc1ccccc1C(C#N)/C(=N/NC(=O)C(=O)NN)C(=O)Nc1cccc(C(F)(F)F)c1 (stereo not drawn),> 100,> 100,,> 100,> 100,> 100,> 100,,> 100,> 100,,,,,,,,,,
O=CN/C=C/c1ccccc1O,> 100,> 100,,> 100,> 100,> 100,> 100,> 100,> 100,> 100,,,,,,,,,,
N=C(N)c1ccc(-c2ccc(-c3ccco3)o2)cc1F,4.81,,4.84,3.04,3.81,6.53,3.81,11.5,3.08,3.14,2.02,,1.83,1.64,1.67,2.31,1.84,1.43,3.27,1.59
CCOCC[P+](c1ccccc1)(c1ccccc1)c1ccccc1,> 100,,66.4,25,78.6,> 100,> 100,> 100,49.6,> 100,73.8,,13.7,10.1,20.4,22.2,35.8,34.8,27.5,6.86
N#Cc1ccccc1/C=N/O,> 56.3,> 100,,> 100,> 100,> 100,> 100,,> 100,> 100,,,,,,,,,,
O=C1CSc2ccncc2N1,> 100,> 100,,> 100,> 100,> 100,> 100,,> 100,> 100,,,,,,,,,,
COc1cc([C@@H]2c3cc4c(cc3[C@@H](NC(=O)c3ccc([N+](=O)[O-])cc3)C3COC(=O)[C@@H]32)OCO4)cc(OC)c1O (stereo partly drawn),6.43,2.04,,3.53,11.5,6.05,1.58,,59.6,10.4,,,,,,,,,,
Cn1c(C2CC(C)(C)c3c2c2ccccc2n3C)cc2ccccc21 (stereo not drawn),> 304,> 304,,> 304,> 304,> 304,> 304,,> 304,,,,,,,,,,,
C=C1CCC2C(C)(CO)C(O)CCC2(C)C1CC(O)C1=CCOC1=O (stereo not drawn),> 100,> 100,,> 100,> 100,> 100,> 100,,> 100,> 100,,,,,,,,,,
